Test results from patent publication US8518889B2, “Method of treating cancer with antibodies against long-form leukotriene B4 receptor BLT2” (Korea University Research & Business Foundation, priority 2007, dated 2013).

Key:
[1] = test system: human pancreatic cancer cells; details: cited from earlier work
[2] = test system: MCF-7 cells; details: LY255283 10 μM, epirubicin 100 ng/ml

Structure (SMILES) | growth and apoptosis of human pancreatic cancer cells [1] | DNA fragmentation / cell death [2]
CCCc1c(OCCCOc2cc(O)c(-c3ccc(F)cc3)cc2CC)cccc1Oc1ccccc1C(=O)O [LY293111] | inhibited the growth of and induced apoptosis of | –
COc1cccc2c1C(=O)c1c(O)c3c(c(O)c1C2=O)C[C@@](O)(C(=O)CO)C[C@@H]3O[C@H]1C[C@H](N)[C@@H](O)[C@H](C)O1 [Epirubicin] | – | only tiny increase in cell death
